The values below come from US10112945B2, “Fused quinoline compunds as PI3K, mTOR inhibitors” (ADVENCHEN PHARMACEUTICALS, NANJING LTD., priority 2014, dated 2018).

The target in one assay is T1, mTor (Homo sapiens, UniProt P42345).
T1 construct: purchased Millipore/Merck KGA
The experiment in a line: In vitro kinase inhibition, mTor (Millipore/Merck kinases panel screening). The following applies: compound at 0.03 μM; scaffold drawing 7 series. In kind it is biochemical. How it is done: (§1) In vitro kinase inhibition activities included Pi3k and mTor activities can be tested with Millipore/Merck KGA of Europe in their kinases panel screening. Animal antitumor activity testing can be conducted by various cancer xenograft models for a compound of formula I.
(§2) The following compounds or a pharmaceutically acceptable salt thereof, but not limited, can also be prepared similarly according to the methods described in Scheme I-Scheme II. They are also tested for the inhibitions on mTor or pi3k kinases, or tumor cell lines.

For another assay, the system named is pi3K. The experiment in a line: In vitro kinase inhibition, pi3K (Millipore/Merck kinases panel screening). The assay is classed as biochemical. The following applies: compound at 0.03 μM; scaffold drawing 7 series. As for the experimental part:
as §1, §2

Take `CN1CCN(CC(=O)Nc2ccc(-c3ccc4ncc5c(c4c3)n(-c3ccc(Cl)c(C(F)(F)F)c3)c3nncn53)cn2)CC1` [N-(5-{16-[4-chloro-3-(trifluoromethyl)phenyl]-8,11,13,14,16-pentaazatetracyclo[8.6.0.0^2,7.0^11,15]-hexadeca-1(10),2,4,6,8,12,14-heptaen-4-yl}pyridin-2-yl)-2-(4-methylpiperazin-1-yl)acetamide]: at mTor, the activity at 0.03 µM was -4%. Further, the “pi3K % activity @0.03 μM” value in the assay with pi3K is on record as 74%.

Turning to “2-(4-methylpiperazin-1-yl)-N-(5-{16-[3-(trifluoromethyl)phenyl]-8,11,13,14,16-pentaazatetra-cyclo[8.6.0.0^2,7.0^11,15]hexadeca-1(10),2,4,6,8,12,14-heptaen-4-yl}pyridin-2-yl)acetamide”, the “mTor % activity @0.03 μM” value at mTor is reported as 46%. Further, the “pi3K % activity @0.03 μM” value in the assay with pi3K was found to be 97%.

As to `FC(F)(F)c1cc(-n2c3c4cc(-c5ccc(NCCN6CCCC6)nc5)ccc4ncc3n3cnnc23)ccc1Cl` [5-{16-[4-chloro-3-(trifluoromethyl)phenyl]-8,11,13,14,16-pentaazatetracyclo[8.6.0.0^2,7.0^11,15]-hexadeca-1(10),2,4,6,8,12,14-heptaen-4-yl}-N-[2-(pyrrolidin-1-yl)ethyl]pyridin-2-amine], on mTor, the activity at 0.03 µM was determined as 15%. Moreover, the “pi3K % activity @0.03 μM” value in the assay with pi3K was 98%.

For `Fc1cc(-n2c3c4cc(-c5cnc6ccccc6c5)ccc4ncc3n3cnnc23)cc(C(F)(F)F)c1` [3-quinoline, 5-F, H, 16-[3-fluoro-5-(trifluoromethyl)phenyl]-4-(quinolin-3yl)-8,11,13,14,16-pentaazatetracyclo-[8.6.0.0^2,7.0^11,15]hexadeca-1(10),2,4,6,8,12,14-heptaene], the activity at 0.03 µM at mTor is -8%.

In the case of `O=C(CN1CCC(O)CC1)Nc1ccc(-c2ccc3ncc4c(c3c2)n(-c2ccc(Cl)c(C(F)(F)F)c2)c2nncn42)cn1` [N-(5-{16-[4-chloro-3-(trifluoromethyl)phenyl]-8,11,13,14,16-pentaazatetracyclo[8.6.0.0^2,7.0^11,15]-hexadeca-1(10),2,4,6,8,12,14-heptaen-4-yl}pyridin-2-yl)-2-(4-hydroxypiperidin-1-yl)acetamide], the activity at 0.03 µM at mTor is 14%.

`O=C(CN1CCOCC1)Nc1ccc(-c2ccc3ncc4c(c3c2)n(-c2ccc(Cl)c(C(F)(F)F)c2)c2nncn42)cn1` [N-(5-{16-[4-chloro-3-(trifluoromethyl)phenyl]-8,11,13,14,16-pentaazatetracyclo[8.6.0.0^2,7.0^11,15]-hexadeca-1(10),2,4,6,8,12,14-heptaen-4-yl}pyridin-2-yl)-2-(morpholin-4-yl)acetamide]: the activity at 0.03 µM on mTor worked out at 17%. The “pi3K % activity @0.03 μM” value with pi3K is on record as 82%.

With `FC(F)(F)c1cccc(-n2c3c4cc(-c5ccc(NCCN6CCCC6)nc5)ccc4ncc3n3cnnc23)c1` [N-[2-(pyrrolidin-1-yl)ethyl]-5-{16-[3-(trifluoromethyl)phenyl]-8,11,13,14,16-pentaazatetracyclo-[8.6.0.0^2,7.0^11,15]-hexadeca-1(10),2,4,6,8,12,14-heptaen-4-yl}pyridin-2-amine], the activity at 0.03 µM at mTor worked out at 4%. Besides, the “pi3K % activity @0.03 μM” value in the assay on pi3K turned out to be 101%.

Regarding `CN(C)CC(=O)Nc1ccc(-c2ccc3ncc4c(c3c2)n(-c2ccc(Cl)c(C(F)(F)F)c2)c2nncn42)cn1` [N-(5-{16-[4-chloro-3-(trifluoromethyl)phenyl]-8,11,13,14,16-pentaazatetracyclo[8.6.0.0^2,7.0^11,15]-hexadeca-1(10),2,4,6,8,12,14-heptaen-4-yl}pyridin-2-yl)-2-(dimethylamino)acetamide], at mTor, the activity at 0.03 µM came to 15%.

Take `O=C(CN1CCOCC1)Nc1ccc(-c2ccc3ncc4c(c3c2)n(-c2cccc(C(F)(F)F)c2)c2nncn42)cn1` [2-(morpholin-4-yl)-N-(5-{16-[3-(trifluoromethyl)phenyl]-8,11,13,14,16-pentaazatetracyclo-[8.6.0.0^2,7.0^11,15]hexadeca-1(10),2,4,6,8,12,14-heptaen-4-yl}pyridin-2-yl)acetamide]: the activity at 0.03 µM at mTor amounted to 31%. Also, the “pi3K % activity @0.03 μM” value with pi3K turned out to be 95%.

Turning to `FC(F)(F)c1cccc(-n2c3c4cc(-c5cccnc5)ccc4ncc3n3cnnc23)c1` [3-pyridine, H, H, 16-(3-(trifluoromethyl)phenyl)-4-(pyridin-3-yl)-8,11,13,14,16-pentaazatetracyclo-[8.6.0.0^2,7.0^11,15]hexadeca-1(10),2,4,6,8,12,14-heptaene], the activity at 0.03 µM on mTor was found to be 0%. The “pi3K % activity @0.03 μM” value in the assay with pi3K turned out to be 70%.

For the compound `Fc1cccc(-c2ccc3ncc4c(c3c2)n(-c2ccc(Cl)c(C(F)(F)F)c2)c2nncn42)c1` [3-Flurophenyl, 4-Cl, H], the “mTor % activity @0.03 μM” value on mTor was 46%.

As to `OCCNc1ccc(-c2ccc3ncc4c(c3c2)n(-c2ccc(Cl)c(C(F)(F)F)c2)c2nncn42)cn1` [2-[(5-{16-[4-chloro-3-(trifluoromethyl)phenyl]-8,11,13,14,16-pentaazatetracyclo-[8.6.0.0^2,7.0^11,15]-hexadeca-1(10),2,4,6,8,12,14-heptaen-4-yl}pyridin-2-yl)amino]ethanol], the activity at 0.03 µM at mTor is -4%. Further, the “pi3K % activity @0.03 μM” value in the assay on pi3K is on record as 82%.

For the compound `FC(F)(F)c1cccc(-n2c3c4cc(-c5cnc6ccccc6c5)ccc4ncc3n3cnnc23)c1` [3-quinoline, H, H, 4-(quinolin-3yl)-16-[3-(trifluoromethyl)phenyl]-8,11,13,14,16-pentaazatetracyclo-[8.6.0.0^2,7.0^11,15]hexadeca-1(10),2,4,6,8,12,14-heptaene], at mTor, the activity at 0.03 µM is -5%. Besides, in the assay with pi3K, the “pi3K % activity @0.03 μM” value amounted to 68%.

For `Fc1ccc(-c2ccc3ncc4c(c3c2)n(-c2ccc(Cl)c(C(F)(F)F)c2)c2nncn42)cc1F` [3,4-Diflurophenyl, 4-Cl, H, 16-[4-chloro-3-(trifluoromethyl)phenyl]-4-(3,4-difluorophenyl)-8,11,13,14,16-pentaazatetra-cyclo-[8.6.0.0^2,7.0^11,15]hexadeca-1(10),2,4,6,8,12,14-heptaene], on mTor, the “mTor % activity @0.03 μM” value is recorded as 31%.

With `O=C1CCN(CC(=O)Nc2ccc(-c3ccc4ncc5c(c4c3)n(-c3ccc(Cl)c(C(F)(F)F)c3)c3nncn53)cn2)CC1` [N-(5-{16-[4-chloro-3-(trifluoromethyl)phenyl]-8,11,13,14,16-pentaazatetracyclo[8.6.0.0^2,7.0^11,15]-hexadeca-1(10),2,4,6,8,12,14-heptaen-4-yl}pyridin-2-yl)-2-(4-oxopiperidin-1-yl)acetamide], the activity at 0.03 µM at mTor is 57%.

Take `FC(F)(F)c1cc(-n2c3c4cc(-c5cnc6ccccc6c5)ccc4ncc3n3cnnc23)ccc1Cl` [3-quinoline, 4-Cl, H, 16-[4-chloro-3-(trifluoromethyl)phenyl]-4-(quinolin-3-yl)-8,11,13,14,16-pentaazatetracyclo-[8.6.0.0^2,7.0^11,15]hexadeca-1(10),2,4,6,8,12,14-heptaene]: the activity at 0.03 µM on mTor turned out to be 11%. For the same compound, the “pi3K % activity @0.03 μM” value with pi3K stood at 84%.

Regarding `Fc1ccccc1-c1ccc2ncc3c(c2c1)n(-c1ccc(Cl)c(C(F)(F)F)c1)c1nncn31` [2-Flurophenyl, 4-Cl, H, 16-[4-chloro-3-(trifluoromethyl)phenyl]-4-(2-fluorophenyl)-8,11,13,14,16-pentaazatetracyclo-[8.6.0.0^2,7.0^11,15]hexadeca-1(10),2,4,6,8,12,14-heptaene], the activity at 0.03 µM at mTor amounted to 55%.

With “12-ethyl-16-[4-fluoro-3 -(trifluoromethyl)phenyl]-4-8,11,13,14,16-pentaazatetracyclo[8.6.0.0^2,7.0^11,15]hexadeca-1(10),2,4,6,8,12,14-heptaene [3-pyridine, 4-F, CH2CH3]”, the “mTor % activity @0.03 μM” value on mTor was 73%.

`FC(F)(F)c1cc(-n2c3c4cc(-c5cnc6ccccc6c5)ccc4ncc3n3cnnc23)cc(C(F)(F)F)c1` [3-quinoline, 5-CF3, H, 16-[3,5-(trifluoromethyl)phenyl]-4-(quinolin-3yl)-8,11,13,14,16-pentaazatetracyclo-[8.6.0.0^2,7.0^11,15]hexadeca-1(10),2,4,6,8,12,14-heptaene]: at mTor, the “mTor % activity @0.03 μM” value was 0%.

For `CN(C)CC(=O)Nc1ccc(-c2ccc3ncc4c(c3c2)n(-c2cccc(C(F)(F)F)c2)c2nncn42)cn1` [2-(dimethylamino)-N-(5-{16-[3-(trifluoromethyl)phenyl]-8,11,13,14,16-pentaazatetracyclo-[8.6.0.0^2,7.0^11,15]hexadeca-1(10),2,4,6,8,12,14-heptaen-4-yl}pyridin-2-yl)acetamide], the activity at 0.03 µM at mTor was found to be 7%. Also, in the assay with pi3K, the “pi3K % activity @0.03 μM” value is 89%.

With `FC(F)(F)c1cc(-n2c3c4cc(-c5ccc(NCCN6CCOCC6)nc5)ccc4ncc3n3cnnc23)ccc1Cl` [5-{16-[4-chloro-3-(trifluoromethyl)phenyl]-8,11,13,14,16-pentaazatetracyclo[8.6.0.0^2,7.0^11,15]-hexadeca-1(10),2,4,6,8,12,14-heptaen-4-yl}-N-[2-(morpholin-4-yl)ethyl]pyridin-2-amine], the activity at 0.03 µM on mTor was determined as 20%. The “pi3K % activity @0.03 μM” value in the assay with pi3K was 93%.

On to `Fc1ccc(C(F)(F)F)cc1-n1c2c3cc(-c4cnc5ccccc5c4)ccc3ncc2n2cnnc12` [3-quinoline, 6-F, H, 16-[2-fluoro-5-(trifluoromethyl)phenyl]-4-(quinolin-3yl)-8,11,13,14,16-pentaazatetracyclo-[8.6.0.0^2,7.0^11,15]hexadeca-1(10),2,4,6,8,12,14-heptaene], for which the activity at 0.03 µM at mTor came out at 0%.

On to `CC(=O)Nc1ccc(-c2ccc3ncc4c(c3c2)n(-c2ccc(Cl)c(C(F)(F)F)c2)c2nncn42)cn1` [N-(5-pyridin-2-yl)acetamide, 4-Cl, H, N-(5-{16-[4-chloro-3-(trifluoromethyl)phenyl]-8,11,13,14,16-pentaazatetracyclo-[8.6.0.0^2,7.0^11,15]hexadeca-1(10),2,4,6,8,12,14-heptaen-4-yl}pyridin-2-yl)acetamide], for which the activity at 0.03 µM on mTor is 5%.
